# Laboratory results as given in ChEMBL document CHEMBL4414674, “Paraconiothins A-J: Sesquiterpenoids from the Endophytic Fungus Paraconiothyrium brasiliense ECN258” (J Nat Prod, 2019).
# Activity calls are given as the source filed them. The rule behind the calls is not given here.
# Key:
# Assay type in all cases: cell-based
# [1] = molecular target: T1, Peroxisome proliferator-activated receptor delta (Homo sapiens) (UniProt Q03181); assay: Inhibition of PPARdelta (unknown origin) transfected in human HEK293 cells co-expressing CMV-beta galactosidase assessed as effect on beta-galactosidase activity at 50 uM after 48 hrs by luciferase reporter gene assay
# T1 sequence (whole entry): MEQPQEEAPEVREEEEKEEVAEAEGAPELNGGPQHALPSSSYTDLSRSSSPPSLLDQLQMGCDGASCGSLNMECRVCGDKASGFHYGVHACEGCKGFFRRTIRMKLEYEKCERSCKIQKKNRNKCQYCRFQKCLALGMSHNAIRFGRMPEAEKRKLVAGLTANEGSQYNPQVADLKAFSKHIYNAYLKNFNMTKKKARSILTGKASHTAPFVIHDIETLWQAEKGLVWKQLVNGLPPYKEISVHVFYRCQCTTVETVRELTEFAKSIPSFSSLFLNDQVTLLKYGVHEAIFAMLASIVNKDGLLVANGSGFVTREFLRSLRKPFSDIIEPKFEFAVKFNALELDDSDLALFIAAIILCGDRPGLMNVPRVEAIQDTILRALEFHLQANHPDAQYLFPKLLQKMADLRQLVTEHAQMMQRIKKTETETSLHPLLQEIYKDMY
# [2] = molecular target: T2, Peroxisome proliferator-activated receptor gamma (Homo sapiens) (UniProt P37231); assay: Inhibition of PPARgamma (unknown origin) transfected in human HEK293 cells co-expressing CMV-beta galactosidase assessed as effect on beta-galactosidase activity at 50 uM after 48 hrs by luciferase reporter gene assay
# T2 sequence (whole entry): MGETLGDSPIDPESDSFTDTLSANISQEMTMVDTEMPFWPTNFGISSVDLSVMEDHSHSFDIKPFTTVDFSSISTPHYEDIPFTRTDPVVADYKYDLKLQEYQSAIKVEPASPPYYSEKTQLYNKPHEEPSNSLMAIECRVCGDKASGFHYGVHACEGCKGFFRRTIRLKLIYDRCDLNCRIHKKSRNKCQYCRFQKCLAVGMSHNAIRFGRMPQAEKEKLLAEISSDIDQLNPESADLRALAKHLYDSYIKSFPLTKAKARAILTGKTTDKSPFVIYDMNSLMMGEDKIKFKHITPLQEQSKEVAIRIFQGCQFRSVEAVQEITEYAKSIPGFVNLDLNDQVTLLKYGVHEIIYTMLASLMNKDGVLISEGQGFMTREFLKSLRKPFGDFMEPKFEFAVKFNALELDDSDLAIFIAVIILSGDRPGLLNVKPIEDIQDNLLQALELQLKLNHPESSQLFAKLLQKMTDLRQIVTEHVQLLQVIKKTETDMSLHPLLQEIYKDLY
# [3] = molecular target: T3, Retinoic acid receptor alpha (Homo sapiens) (UniProt P10276); assay: Inhibition of human RARalpha transfected in human HEK293 cells co-expressing CMV-beta galactosidase assessed as effect on beta-galactosidase activity at 50 uM after 48 hrs by luciferase reporter gene assay
# T3 sequence (whole entry): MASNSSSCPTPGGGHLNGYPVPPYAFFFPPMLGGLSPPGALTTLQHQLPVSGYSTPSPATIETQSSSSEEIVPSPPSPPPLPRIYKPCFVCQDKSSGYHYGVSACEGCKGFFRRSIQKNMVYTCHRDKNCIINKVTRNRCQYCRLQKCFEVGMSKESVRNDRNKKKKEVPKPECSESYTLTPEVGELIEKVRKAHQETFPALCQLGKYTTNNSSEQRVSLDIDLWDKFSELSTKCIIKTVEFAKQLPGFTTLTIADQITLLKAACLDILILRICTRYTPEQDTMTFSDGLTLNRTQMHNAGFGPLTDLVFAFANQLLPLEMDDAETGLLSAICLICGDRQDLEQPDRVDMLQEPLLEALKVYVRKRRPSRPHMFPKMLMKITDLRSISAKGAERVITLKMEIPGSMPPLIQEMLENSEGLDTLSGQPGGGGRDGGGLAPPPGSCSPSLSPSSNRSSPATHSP
# [4] = molecular target: T4, Oxysterols receptor LXR-alpha (Homo sapiens) (UniProt Q13133); assay: Inhibition of human LXRalpha transfected in human HEK293 cells co-expressing CMV-beta galactosidase assessed as inhibition on T0901317 response at 50 uM after 48 hrs by luciferase reporter gene assay
# T4 sequence (whole entry): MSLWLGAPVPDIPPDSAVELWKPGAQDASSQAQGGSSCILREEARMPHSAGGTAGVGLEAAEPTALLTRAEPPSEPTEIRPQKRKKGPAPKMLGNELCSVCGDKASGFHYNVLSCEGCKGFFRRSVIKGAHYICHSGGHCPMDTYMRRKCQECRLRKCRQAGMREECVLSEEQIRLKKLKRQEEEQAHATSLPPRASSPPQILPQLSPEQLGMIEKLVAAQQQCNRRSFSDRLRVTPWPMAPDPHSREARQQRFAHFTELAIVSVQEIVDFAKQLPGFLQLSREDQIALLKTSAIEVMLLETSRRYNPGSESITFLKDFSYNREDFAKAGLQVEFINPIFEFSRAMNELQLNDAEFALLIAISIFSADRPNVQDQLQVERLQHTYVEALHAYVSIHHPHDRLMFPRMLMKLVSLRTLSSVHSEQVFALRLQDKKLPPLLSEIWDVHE
# HEK293 = assay: Cytotoxicity against human HEK293 cells
Structure (SMILES),inhibition [1],inhibition [2],inhibition [3],inhibition [4],Activity (HEK293)
C[C@H]1CC(=O)C=C2C=CC(=C(CO)CO)[C@H](O)[C@@]21C,inactive,inactive,inactive,–,–
C=C(CO)[C@@]12O[C@@H]1[C@@]1(C)C(=CC2=O)C[C@H](O)C[C@@H]1C,inactive,inactive,inactive,–,–
C=C(CO)[C@@]12O[C@@H]1[C@@]1(C)C(=C[C@@H]2O)C=C[C@@H](O)[C@@H]1C,inactive,inactive,inactive,–,–
C=C(CO)[C@@]12O[C@@H]1[C@@]1(C)C(=C[C@@H]2OC(C)=O)C=C[C@@H](O)[C@@H]1C,inactive,inactive,inactive,–,–
C=C(CO)[C@H]1C[C@@]2(C)C(=C[C@@H]1O)C[C@H](O)C[C@@H]2C,inactive,inactive,inactive,–,–
C=C(CO)c1ccc([C@@H](C)C[C@@H](O)CO)c(C)c1 (relative stereo),inactive,inactive,inactive,Active,Non-Toxic
C=C(CO)[C@]12O[C@H]1[C@]1(C)C(=C[C@H]2OC(C)=O)CCC[C@H]1C,inactive,inactive,inactive,–,–
C=C(CO)[C@H]1CC=C2CC[C@@H](O)[C@H](C)[C@@]2(C)C1,inactive,inactive,inactive,Active,Non-Toxic
C=C(CO)c1ccc2c(c1C)[C@@H](C)C[C@H](O)C2=O,inactive,inactive,inactive,–,–
C=C(CO)[C@@]12O[C@@H]1[C@@]1(C)C(=C[C@@H]2OC(C)=O)CC[C@@H](O)[C@@H]1C (relative stereo),inactive,inactive,inactive,–,–
C=C(CO)[C@@]12O[C@@H]1[C@@]1(C)C(=C[C@@H]2O)[C@H](O)CC[C@@H]1C,inactive,inactive,inactive,–,–
C=C(CO)[C@@H]1CC=C2C[C@@H](O)[C@H](O)[C@@H](C)[C@]2(C)C1 (relative stereo),inactive,inactive,inactive,–,–
C=C(CO)c1ccc([C@@H](O)[C@H](O)/C=C/C)c(C)c1 (relative stereo),inactive,inactive,inactive,–,–
